This passage reports IC50 results from patent publication US7759339B2, “Hydroxysteroid dehydrogenase inhibitors” (Takeda San Diego, Inc., priority 2005, dated 2010).

The target of the assay is T1, 11b-HSD1 (Homo sapiens, UniProt P28845).
T1 construct: made in house; host or cells: E. coli DH10b-Tir
As to the kind of experiment: in vitro enzymatic 11b-HSD1 dehydrogenase activity assay. The class given is biochemical. The following applies: 11b-HSD1 dehydrogenase assay; 10 μM each of cortisol and NADP+, 50 nM enzyme, 60 minutes at room temperature; reference point for this assay.

T1 sequence (P28845 24-292): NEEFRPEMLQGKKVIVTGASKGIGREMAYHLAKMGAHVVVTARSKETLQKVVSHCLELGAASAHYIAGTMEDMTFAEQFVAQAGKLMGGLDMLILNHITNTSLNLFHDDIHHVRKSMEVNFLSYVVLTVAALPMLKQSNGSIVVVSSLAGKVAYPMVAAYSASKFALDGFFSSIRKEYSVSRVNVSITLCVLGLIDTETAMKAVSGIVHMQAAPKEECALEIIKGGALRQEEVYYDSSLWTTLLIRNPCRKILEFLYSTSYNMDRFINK
Procedure: Provided below is an in vitro enzymatic 11b-HSD1 dehydrogenase activity assay for activity against 11b-HSD1.
The inhibitory properties of compounds relative to 11b-HSD1 may be determined using a white 384-well-plate format under the following reaction conditions: 50 mM Tris pH 7.5, 150 mM NaCl, 0.1 mM EDTA, 0.01% Brij35, 10 μM each of cortisol and NADP^+, 1% DMSO. Reaction product may be determined quantitatively by fluorescence intensity using a fluorescence plate reader (Molecular Devices Gemini) with a 340 nm excitation wavelength and a 460 nm emission wavelength.
The assay reaction may be initiated as follows: 4 μl buffer containing 25 μM cortisol and 25 μM NADP^+ was added to each well of the plate, followed by the addition of 2 μl of inhibitor (2 fold serial dilutions for 11 data points for each inhibitor) containing 5% DMSO. 4 μl of 125 nM 11b-HSD1 enzyme solution may be added to initiate the reaction (final enzyme concentrations was 50 nM). Fluorescence intensities of the resulting reaction mixtures may be measured after 60 minutes incubation at room temperature.
IC50 values may be calculated by non-linear curve fitting of the compound concentrations and fluorescence intensities to the standard IC50 equation.

For `CCN(CC)C(=O)Cc1csc(NS(=O)(=O)c2cccc(Cl)c2C)n1` [BVT14225], the IC50 worked out at 500 nM.
